Data: patent US7459482B2, “Agent for treatment of cisplatin-resistant cancer” (Dainippon Sumitomo Pharma Co., Ltd., priority 2000, dated 2008)

Tested on: H4-II-E/CDDP cells
Assay: Cell proliferation inhibitory effects after treating for 7 days, WST-1 assay; resistance of H4-II-E/CDDP cells in comparison with H4-II-E cells
Assay type: cell-based, rat
Details: for resistance of H4-II-E/CDDP cells to the drug: H4-II-E/CDDP cells vs H4-II-E cells
Description: Rat hepatic cancer H4-II-E was obtained from Dainippon Pharmaceutical Co., Ltd. The H4-II-E cells were cultured in MEM medium, during which the concentration of CDDP was increased stepwise from 0.1 μg/ml to 1.0 μg/ml over a period of about one year, by which method, the CDDP resistant cell line (H4-II-E/CDDP) was prepared. The cells used in the experiment were those obtained by subculturing in a CDDP-containing MEM medium (CDDP 1.0 μg/ml) in vitro.
The cell proliferation inhibitory effects of cisplatin to H4-II-E cells and H4-II-E/CDDP cells after treating for 7 days were evaluated by WST-1 assay.

SMILES | resistance of H4-II-E/CDDP cells in comparison with H4-II-E cells (7 days treatment, WST-1 assay) | resistance of H4-II-E/CDDP cells to the drug
N.N.[Cl][Pt][Cl] [cisplatin, Cisplatin] | about 10 folds | –
COc1cccc2c1C(=O)c1c(O)c3c(c(O)c1C2=O)C[C@@](O)(C(=O)CO)C[C@@H]3O[C@H]1C[C@H](N)[C@H](O)[C@H](C)O1 [doxorubicin] | – | did not show any resistance
COc1cc([C@@H]2c3cc4c(cc3[C@@H](O[C@@H]3O[C@@H]5CO[C@@H](C)O[C@H]5[C@H](O)[C@H]3O)[C@H]3COC(=O)[C@H]23)OCO4)cc(OC)c1O [etoposide] | – | did not show any resistance
